# Where “and” joins values, the source holds several entries; their conditions need not be identical. Equal entries are not always repeated.
# Assay: photoluminescence quantum yield (fraction); solvent given as SMILES
# [1] = in c1ccc2c(c1)c1ccccc1n2-c1ccc(-c2ccc(-n3c4ccccc4c4ccccc43)cc2)cc1
# [2] = in O=P(c1ccccc1)(c1ccccc1)c1ccccc1Oc1ccccc1P(=O)(c1ccccc1)c1ccccc1
smiles,measurement,setting,value
CCCCCCc1ccsc1-c1cc2c3cc(-c4sccc4CCCCCC)c4nc(C(F)(F)C(F)(F)C(F)(F)F)nc5c(-c6sccc6CCCCCC)cc(c6cc(-c7sccc7CCCCCC)c7nc(C(F)(F)C(F)(F)C(F)(F)F)nc1c7c26)c3c45,photoluminescence quantum yield,in C1CCOC1,0.65
COCCOCCOCN1C(=O)c2ccc3c(-c4ccccc4)c4c5ccc6c7c(ccc(c(-c8ccccc8)c4c4ccc(c2c34)C1=O)c75)C(=O)N(COCCOCCOC)C6=O,photoluminescence quantum yield,in ClCCl,0.05
CCCCCCN(c1ccccc1)c1ccc(/C=C/c2cc(=O)oc3cc(C)ccc23)cc1,photoluminescence quantum yield,in ClC(Cl)Cl,0.05
CC1=[N+]2C(=C(c3ccccc3)c3c4c(c(C)n3[B-]2(F)F)CCc2ccccc2-4)C2=C1CCc1ccccc12,photoluminescence quantum yield,in CC#N,0.1
CN(C)c1cc(-c2ccccc2)cc2cc(C#Cc3ccncc3)ccc12,photoluminescence quantum yield,in ClCCl,0.72
C[Si](C)(c1cccc2ccccc12)[Si](C)(C)[Si](C)(C)[Si](C)(C)c1c2ccccc2cc2ccccc12,photoluminescence quantum yield,in C1CCCCC1,0.65
same,photoluminescence quantum yield,in CC#N,0.08
COc1ccc(-c2c3ccccc3c(C#Cc3ccccc3)c3ccccc23)cc1,photoluminescence quantum yield,in ClCCl,0.51
c1ccc(-c2nc(-c3ccc(-c4nc(-c5ccccc5)c(-c5ccccc5)o4)cc3)oc2-c2ccccc2)cc1,photoluminescence quantum yield,in C1COCCO1,0.63
CC(C)(C)N1C(=O)c2c(cc3ccc4cccc5ccc2c3c45)C1O (stereo not drawn),photoluminescence quantum yield,in ClC(Cl)Cl,0.14 and 0.143
CCCCn1c(=O)c2cc3ccc4cccc5ccc(c2c1=O)c3c45,photoluminescence quantum yield,in ClC(Cl)Cl,0.52
COc1ccc(C(=O)OCc2ccc3c4cccc5cccc(c6cccc2c63)c54)cc1,photoluminescence quantum yield,in CCO,0.93
CCCCCCCCCCn1nnc(-c2ccc(C#Cc3ccc(C#Cc4ccc(-c5nnn(CCCCCCCCCC)n5)cc4)c4nc5c6ccccc6c6ccccc6c5nc34)cc2)n1,photoluminescence quantum yield,in C1CCOC1,0.05
same,photoluminescence quantum yield,in Cc1ccccc1,0.07
same,photoluminescence quantum yield,in ClCCl,0.04
CC[N+]1(CC)CN2C(=N1)C(C(=O)O)=Cc1cc(SC)ccc12,photoluminescence quantum yield,in O,0.308
CCCCN(CCCC)c1ccc(C#Cc2cc(C#Cc3ccc(C#N)cc3)c(C#Cc3ccc(C#N)cc3)cc2C#Cc2ccc(N(CCCC)CCCC)cc2)cc1,photoluminescence quantum yield,in ClCCl,0.26
CC(C)c1cccc(C(C)C)c1N1C(=O)c2cccc3c(Oc4ccc(C(C)(C)C)cc4)ccc(c23)C1=O,photoluminescence quantum yield,in ClCCl,0.11
CCC1=C(C)C2=Cc3c4ccccc4c4n3[B-](c3ccccc3)(Oc3ccccc3-4)[N+]2=C1C (stereo not drawn),photoluminescence quantum yield,in CC#N,0.75
same,photoluminescence quantum yield,in CCCCCC,0.77
same,photoluminescence quantum yield,in Cc1ccccc1,0.64
same,photoluminescence quantum yield,in ClCCl,0.75
COc1c2ccccc2c(OC)c2c1c1ccccc1n2C,photoluminescence quantum yield,in C1CCCCC1,0.46
same,photoluminescence quantum yield,in CC#N,0.55
same,photoluminescence quantum yield,in CO,0.39
same,photoluminescence quantum yield,in ClCCl,0.41
CCN(CC)c1ccc(-c2nc3c(nc2-c2ccc(B(c4c(C)cc(C)cc4C)c4c(C)cc(C)cc4C)cc2)c2ccccc2n3C)cc1,photoluminescence quantum yield,in C1CCOC1,0.21
F[Si](c1ccccc1)(c1ccccc1)c1cc2ccccc2c2ccccc12,photoluminescence quantum yield,in C1CCOC1,0.11
CCCCC(CC)CN1C(=O)c2cc(Oc3ccc(OC)cc3)c3c4c(Oc5ccc(C(C)(C)C)cc5)cc5c6c(cc(Oc7ccc(C(C)(C)C)cc7)c(c7c(Oc8ccc(OC)cc8)cc(c2c37)C1=O)c64)C(=O)N(c1c(C(C)C)cccc1C(C)C)C5=O (stereo not drawn),photoluminescence quantum yield,in Cc1ccccc1,0.58
O=[N+]([O-])c1ccc(/C=C/c2c[nH]c3ccccc23)cc1,photoluminescence quantum yield,in CC#N,0.009
same,photoluminescence quantum yield,in CCCCCCC,0.051
same,photoluminescence quantum yield,in CO,0.003
same,photoluminescence quantum yield,in O,0.024
Nc1cc2ccc3cccc4ccc(c1)c2c34,photoluminescence quantum yield,in CC#N,0.14
same,photoluminescence quantum yield,in CCCCOCCCC,0.19
same,photoluminescence quantum yield,in CO,0.17
Cc1ccc(-c2ccc(/C=C/c3ccc(F)cc3)cn2)nc1,photoluminescence quantum yield,in CC#N,0.69
N#Cc1cc(-n2c3ccccc3c3ccccc32)c(-n2c3ccccc3c3cc(Br)ccc32)cc1C#N,photoluminescence quantum yield,in C1CCOC1,0.061
same,photoluminescence quantum yield,[1],0.555
F[B-]1(F)n2c(Nc3cccc4cccnc34)ccc2C(c2ccccc2)=C2C=CC(Cl)=[N+]21,photoluminescence quantum yield,in C1CCCCC1,0.17
same,photoluminescence quantum yield,in CC#N,0.0024
same,photoluminescence quantum yield,in Cc1ccccc1,0.04
same,photoluminescence quantum yield,in ClC(Cl)Cl,0.01
F[B-]1(F)OC(C#Cc2ccccc2)=CC(c2ccccc2)=[O+]1,photoluminescence quantum yield,in ClCCl,0.43
Cn1cc(-c2nc3ccccc3nc2/C=C/N2CCCC2)c2ccccc21,photoluminescence quantum yield,in C1CCCCC1,0.126
same,photoluminescence quantum yield,in C1CCOC1,0.444
same,photoluminescence quantum yield,in CC#N,0.43
same,photoluminescence quantum yield,in CC(C)=O,0.456
same,photoluminescence quantum yield,in CCO,0.048
same,photoluminescence quantum yield,in CO,0.012
same,photoluminescence quantum yield,in CS(C)=O,0.496
same,photoluminescence quantum yield,in Cc1ccccc1,0.375
same,photoluminescence quantum yield,in ClCCl,0.579
Oc1cccc(-c2nc(-c3ccccc3)c(-c3ccccc3)[nH]2)c1,photoluminescence quantum yield,in CO,0.24
O=C1NC(=O)/C(=C\c2ccccc2O)S1,photoluminescence quantum yield,in C1CCCCC1,0.02
same,photoluminescence quantum yield,in C1COCCO1,0.031
same,photoluminescence quantum yield,in CC#N,0.025
same,photoluminescence quantum yield,in CN(C)C=O,0.064
same,photoluminescence quantum yield,in CO,0.02
same,photoluminescence quantum yield,in O,0.011
same,photoluminescence quantum yield,in OCC(O)CO,0.632
same,photoluminescence quantum yield,in OCCO,0.115
[NH3+]C1(c2ccc3cc(O)ccc3c2)C2CC3CC(C2)CC1C3 (stereo not drawn),photoluminescence quantum yield,in CC#N,0.3
c1cc2ccc3ccc4ccc5ccc1c1c2c3c4c51,photoluminescence quantum yield,in C1CCCCC1,0.024
CCCCNc1ccc2n1[B-](F)(F)[N+]1=CC(/C=C/C(=O)OC(C)(C)C)=CC1=C2c1c(C)cc(C)cc1C,photoluminescence quantum yield,in ClCCl,0.59
CCC1=C(C)C2=C(C)c3cccn3[B-](F)(F)[N+]2=C1C,photoluminescence quantum yield,in C1CCCCC1,0.96
same,photoluminescence quantum yield,in CC(C)=O,0.79
same,photoluminescence quantum yield,in CCO,0.84
same,photoluminescence quantum yield,in CCOC(C)=O,0.84
same,photoluminescence quantum yield,in CO,0.76
same,photoluminescence quantum yield,in OCC(F)(F)F,0.75
O=C(O)CCNc1cccc2ccccc12,photoluminescence quantum yield,in CCO,0.54
c1ccc(-c2nc(-c3ccccc3)nc(-c3ccc(-n4c5ccccc5c5cc6c(cc54)C4(c5ccccc5-c5ccccc54)c4ccccc4-6)cc3)n2)cc1,photoluminescence quantum yield,[2],0.856
C[Si]1(C)c2ccc(-c3ccc(N(c4ccccc4)c4ccccc4)cc3)cc2C=Cc2cc(-c3ccc(N(c4ccccc4)c4ccccc4)cc3)ccc21,photoluminescence quantum yield,in ClCCl,0.43
c1cc2c3c(cccc3c1)-c1cc3c(ccc4ccccc43)cc1-2,photoluminescence quantum yield,in CCCCCCC,0.65
N#Cc1c(N2CCCCC2)cc(-c2ccc3c(c2)OCO3)c2c1-c1cccc3cccc-2c13,photoluminescence quantum yield,in O,0.3
CC1(C)c2ccccc2N(c2ccc3c(c2)-c2cc(N4c5ccccc5C(C)(C)c5ccccc54)ccc2P3(=O)c2ccccc2)c2ccccc21,photoluminescence quantum yield,in Cc1ccccc1,0.55
same,photoluminescence quantum yield,[1],0.56
CCOC(=O)c1ccccc1-c1c2ccc(=[N+](CC)CC)cc-2oc2c1c(=O)oc1cc3c(cc12)CCCN3C,photoluminescence quantum yield,in CCO,0.04
same,photoluminescence quantum yield,in ClC(Cl)Cl,0.33
CCCCCCCCCCCCOc1cc2c3c(ccc4c5c(SCCCCCCCCCCCC)cc6c7c(ccc(c1c34)c75)C(=O)N(C1CCCCC1)C6=O)C(=O)N(C1CCCCC1)C2=O,photoluminescence quantum yield,in ClC(Cl)Cl,0.39
F[B-]1(F)OC(c2ccc(Br)cc2)=Cc2c3ccccc3cc[n+]21,photoluminescence quantum yield,in ClC(Cl)Cl,0.049
COc1ccccc1-n1nc(C#N)c(N2CCCC2)n1,photoluminescence quantum yield,in CC#N,0.456
Cc1ccc(-n2c3ccccc3c3cc(C(=C(C#N)C#N)c4ccccc4)ccc32)cc1,photoluminescence quantum yield,in C1CCOC1,0.12
same,photoluminescence quantum yield,in CC#N,0.07
same,photoluminescence quantum yield,in CC(C)=O,0.05
same,photoluminescence quantum yield,in CCOC(C)=O,0.09
same,photoluminescence quantum yield,in CO,0.01
same,photoluminescence quantum yield,in CS(C)=O,0.02
same,photoluminescence quantum yield,in Cc1ccccc1,0.14
same,photoluminescence quantum yield,in ClC(Cl)Cl,0.13
CCCC1=Cc2nc1ccc1[nH]c(cc1CCC)c1nc(c(O)cc3[nH]c2cc3CCC)C(CCC)=C1,photoluminescence quantum yield,in Cc1ccccc1,0.15
Cc1ccc2c(c1)n(C)c(-c1ccc(-c3ccc(-c4ccc(-c5n(C)c6cc(C)ccc6[n+]5C)cc4)cc3)cc1)[n+]2C,photoluminescence quantum yield,in O,0.68
CCCCC(CC)CN1C(=O)c2cc(Oc3ccc(C(C)(C)C)cc3)c3c4c(Oc5ccc(OC)cc5)cc5c6c(cc(Oc7ccc(OC)cc7)c(c7c(Oc8ccc(C(C)(C)C)cc8)cc(c2c37)C1=O)c64)C(=O)N(c1c(C(C)C)cccc1C(C)C)C5=O (stereo not drawn),photoluminescence quantum yield,in Cc1ccccc1,0.57
O=C(O)C1=C(C(=O)O)C2=C[C@H]3c4ccccc4[C@]2([Se]1)c1ccccc13,photoluminescence quantum yield,in ClCCl,0.38
N#Cc1cc(C#N)c(-n2c3ccccc3c3c(-c4cccc5c4c4ccccc4n5-c4cc(-n5c6ccccc6c6ccccc65)c(C#N)cc4C#N)cccc32)cc1-n1c2ccccc2c2ccccc21,photoluminescence quantum yield,[2],0.61
N[C@@H](Cn1nnc2cc(-c3ccc(-c4ccsc4)cc3)ccc21)C(=O)O,photoluminescence quantum yield,in CO,0.03
O=C(O)c1ccc2ccc3cccc4ccc1c2c34,photoluminescence quantum yield,in C1CCOC1,0.57
same,photoluminescence quantum yield,in CC#N,0.11
same,photoluminescence quantum yield,in CCCCCC,0.56
same,photoluminescence quantum yield,in CCO,0.038
same,photoluminescence quantum yield,in CN(C)C=O,0.003
same,photoluminescence quantum yield,in CO,0.097
same,photoluminescence quantum yield,in Cc1ccccc1,0.73
same,photoluminescence quantum yield,in ClCCl,0.63
COC(=O)c1c(NC(C)(C)C)oc(-c2ccccc2)c1C(=O)OC,photoluminescence quantum yield,in CC#N,0.1
CC(C)(C)c1cc(-c2ccc(-c3cccs3)s2)c2c(c1)c1cc(C(C)(C)C)cc(-c3ccc(-c4cccs4)s3)c1n2-c1ccc(-c2cccs2)s1,photoluminescence quantum yield,in ClCCl,0.092
CN1c2ccccc2CCc2ccccc21,photoluminescence quantum yield,in CC#N,0.031
same,photoluminescence quantum yield,in CO,0.027
CCOC(=O)COc1ccc(/C=C/C2=C3c4ccccc4C(c4ccc[nH]4)=[N+]3[B-](F)(F)n3ccc(C)c32)cc1,photoluminescence quantum yield,in C1CCOC1,0.003
same,photoluminescence quantum yield,in CC#N,0.003
same,photoluminescence quantum yield,in CCCCCC,0.009
same,photoluminescence quantum yield,in CO,0.005
same,photoluminescence quantum yield,in Cc1ccccc1,0.004
same,photoluminescence quantum yield,in ClCCl,0.003
CCOC(=O)C1=CN(c2ccccc2)C=C(C(=O)OCC)C1c1ccccc1,photoluminescence quantum yield,in C1CCOC1,0.51
same,photoluminescence quantum yield,in CO,0.44
Cc1cc(C2=C(c3c(C)sc(-c4ccc(-c5nc(-c6ccccc6)c(-c6ccccc6)[nH]5)cc4)c3C)C(F)(F)C(F)(F)C2(F)F)c(C)s1,photoluminescence quantum yield,in C1CCOC1,0.077
